The target in one assay is T1, human CA-IX (Homo sapiens, UniProt Q16790).
T1 construct: purchased Acro CA9-H82E3
The assay can be described thus: Surface Plasmon Resonance (SPR) binding kinetics to recombinant human CA-IX (Biacore 8K, single-cycle kinetics, 1:1 binding model). The procedure: (§1) G1. Surface Plasmon Resonance Assay Conditions for hCA-IX and hCA-XII
(§2) Surface Plasmon Resonance (SPR) experiments were conducted on a Biacore 8K instrument (Cytiva, Marlborough, MA) to determine the binding kinetics of the compound to recombinant human CA-IX (Acro, CA9-H82E3) and CA-XII (Creative BioMart, CA12-261H) proteins. The ligands were diluted to 10 μg/mL in PBS-P+ buffer (20 mM phosphate buffer, pH 7.4, with 2.7 mM KCl, 137 mM NaCl, and 0.05% Tween 20) and captured on Series S Streptavidin Sensor Chips (Cytiva, 29699621) to 1200-1800 response units (RU) using a flow rate of 5 μL/min and injection times of 180 seconds for human CA-IX and 75 seconds for human CA-XII. Analyte binding was evaluated using a single-cycle kinetics method over 9 analyte concentrations (100-0.39 nM) in PBS-P+ buffer with 1% DMSO using a 50 μL/min. flow rate, 120 second association time, and 1200 second dissociation time. The flow cell temperature was set to 25° C. Analyte binding curves were fit to a 1:1 binding kinetic model in Biacore Insight Evaluation software (version 4.0.8.20368) following reference flow cell subtraction and DMSO correction to derive the association and dissociation binding constants.

The next assay concerns the target T2, human CA-XII (Homo sapiens, UniProt O43570).
T2 construct: purchased Creative BioMart CA12-261H
The assay can be described thus: Surface Plasmon Resonance (SPR) binding kinetics to recombinant human CA-XII (Biacore 8K, single-cycle kinetics, 1:1 binding model). On the procedure: as §1, §2

The mark [1] stands for this setting: Chelated Metal: Lu-175; SPR, 25° C., pH 7.4; read-out: CAIX KD.
[2] abbreviates: Chelated Metal: Lu-175, 25° C., pH 7.4, read-out: CAXII KD.

Where two headings read alike, the source gives them in different places. Some results are limits rather than exact numbers.

This passage reports Kd results from patent US20260325685A1, “Radiopharmaceutical Compositions Targeting Carbonic Anhydrase IX and Uses Thereof” (RayzeBio, Inc., priority 2023, published 2026).

What is called Kd is the free concentration of one partner at which half of the binding sites on the other are occupied at equilibrium, for simple one-to-one binding.

T2 sequence (O43570 25-354): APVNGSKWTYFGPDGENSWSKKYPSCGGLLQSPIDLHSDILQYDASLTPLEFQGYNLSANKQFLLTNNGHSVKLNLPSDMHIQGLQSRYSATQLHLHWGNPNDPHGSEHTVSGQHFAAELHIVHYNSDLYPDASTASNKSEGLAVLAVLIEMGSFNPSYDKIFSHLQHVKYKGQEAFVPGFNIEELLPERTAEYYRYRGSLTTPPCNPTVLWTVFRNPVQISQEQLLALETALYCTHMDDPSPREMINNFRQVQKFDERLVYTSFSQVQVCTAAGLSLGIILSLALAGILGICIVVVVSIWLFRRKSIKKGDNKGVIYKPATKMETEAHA

`CC(CCC(=O)N[C@@H](CC(=O)N[C@@H](CC(=O)N1CCN(C(=O)[C@H](CCC(=O)NCCOCCOCCOCCOCCOCCOCCOCCOCCC(=O)N[C@@H](CCCCNC(=O)CCCc2ccc(Cl)cc2)C(=O)O)NC(=O)CN2CCN(CC(=O)O)CCN(CC(=O)O)CCN(CC(=O)O)CC2)C[C@H]1C(=O)NCCn1cc(C23CC(C(=O)Nc4nnc(S(N)(=O)=O)s4)(C2)C3)nn1)C(=O)O)C(=O)O)(c1ccc(O)cc1)c1ccc(O)cc1.[Lu+3]` (racemic) [Compound 125.1]: the dissociation constant Kd at human CA-IX (setting [1]) is 2.5 to 10 nM; at human CA-XII (setting [2]), more than 10 nM. For the compound `CC(CCC(=O)N[C@@H](CC(=O)N[C@@H](CC(=O)N1CCN(C(=O)[C@H](CCC(=O)NCCOCCOCCOCCOCCOCCOCCOCCOCCC(=O)N[C@@H](CCCCNC(=O)CCCc2ccc(I)cc2)C(=O)O)NC(=O)CN2CCN(CC(=O)O)CCN(CC(=O)O)CCN(CC(=O)O)CC2)C[C@H]1C(=O)NCCn1cc(C23CC(C(=O)Nc4nnc(S(N)(=O)=O)s4)(C2)C3)nn1)C(=O)O)C(=O)O)(c1ccc(O)cc1)c1ccc(O)cc1.[Lu+3]` (racemic) [Compound 125], the Kd on human CA-IX (read-out: CAIX KD; Chelated Metal: Lu-175; SPR, 25° C., pH 7.4) is 1 to 2.5 nM; at human CA-XII (read-out: CAXII KD, Chelated Metal: Lu-175, 25° C., pH 7.4) it was more than 10 nM. As for `CC(CCCC(=O)N1CCC(C(N)=O)(C(=O)NCC(=O)NC2(C(=O)NCCn3cc(C45CC(C(=O)Nc6nnc(S(N)(=O)=O)s6)(C4)C5)nn3)CCN(C(=O)CN3C[C@@H]4CN(C(=O)CN5CCN(CC(=O)O)CCN(CC(=O)O)CCN(CC(=O)O)CC5)C[C@@H]4C3)CC2)CC1)(c1ccc(O)cc1)c1ccc(O)cc1.[Lu+3]` (racemic) [Compound 129.6], the equilibrium dissociation constant (Kd) on human CA-IX (setting [1]) is less than 1 nM; on human CA-XII (setting [2]), more than 10 nM. For the compound `CC(CCCC(=O)N1CCC(C(=O)O)(C(=O)NCC(=O)NC2(C(=O)NCCn3cc(C45CC(C(=O)Nc6nnc(S(N)(=O)=O)s6)(C4)C5)nn3)CCN(C(=O)CN3CCN(CC(=O)O)CCN(CC(=O)O)CCN(CC(=O)O)CC3)CC2)CC1)(c1ccc(O)cc1)c1ccc(O)cc1.[Lu+3]` (single isomer, unassigned) [Compound 117.1], the Kd at human CA-IX (setting [1]) was less than 1 nM; on human CA-XII (setting [2]) it was more than 10 nM.

Consider `CC(CCCC(=O)N1CCC(C(=O)O)(C(=O)NCC(=O)NC2(C(=O)NCCn3cc(C45CC(C(=O)Nc6nnc(S(N)(=O)=O)s6)(C4)C5)nn3)CCN(C(=O)CN3CCN(CC(=O)O)CCN(CC(=O)O)CCN(CC(=O)O)CC3)CC2)CC1)(c1ccc(O)cc1)c1ccc(O)cc1.[Lu+3]` (single isomer, unassigned) [Compound 117.4], for which the Kd is 1 to 2.5 nM on human CA-IX (setting [1]) and more than 10 nM at human CA-XII (setting [2]).

Turning to `CC(CCC(=O)N[C@@H](CC(=O)N[C@@H](CC(=O)N[C@@H](CCCCn1cc(C23CCC(C(=O)Nc4nnc(S(N)(=O)=O)s4)(CC2)C3)nn1)C(=O)NCCOCCOCCNC(=O)CN1CCN(CC(=O)O)CCN(CC(=O)O)CCN(CC(=O)O)CC1)C(=O)O)C(=O)O)(c1ccc(O)cc1)c1ccc(O)cc1.[Lu+3]` [Compound 100.1], the equilibrium dissociation constant (Kd) on human CA-IX (setting [1]) was less than 1 nM; at human CA-XII (setting [2]) it was 1 to 2.5 nM.

On to `CC(CCC(=O)N[C@@H](CC(=O)N[C@@H](CC(=O)N[C@@H](CCCn1cc(C23CC(C(=O)Nc4nnc(S(N)(=O)=O)s4)(C2)C3)nn1)C(=O)NCCOCCOCCNC(=O)CN1CCN(CC(=O)O)CCN(CC(=O)O)CCN(CC(=O)O)CC1)C(=O)O)C(=O)O)(c1ccc(O)cc1)c1ccc(O)cc1.[Lu+3]` [Compound 100.2], for which the Kd at human CA-IX (setting [1]) was 1 to 2.5 nM; on human CA-XII (setting [2]), more than 10 nM. Take `CC(CCC(=O)N[C@@H](CC(=O)N[C@@H](CC(=O)N[C@@H](CCCn1cc(C2CCC(C(=O)Nc3nnc(S(N)(=O)=O)s3)CC2)nn1)C(=O)NCCOCCOCCNC(=O)CN1CCN(CC(=O)O)CCN(CC(=O)O)CCN(CC(=O)O)CC1)C(=O)O)C(=O)O)(c1ccc(O)cc1)c1ccc(O)cc1.[Lu+3]` (some centres unmarked) [Compound 100.3]: the values for the Kd on human CA-IX (setting [1]) and at human CA-XII (setting [2]) were less than 1 nM and 2.5 to 10 nM, respectively. With `CC(CCC(=O)N[C@@H](CC(=O)N[C@@H](CC(=O)N[C@@H](CCCCn1cc([C@H]2CC[C@H](C(=O)Nc3nnc(S(N)(=O)=O)s3)CC2)nn1)C(=O)NCCOCCOCCNC(=O)CN1CCN(CC(=O)O)CCN(CC(=O)O)CCN(CC(=O)O)CC1)C(=O)O)C(=O)O)(c1ccc(O)cc1)c1ccc(O)cc1.[Lu+3]` [Compound 100.4], the equilibrium dissociation constant (Kd) on human CA-IX (setting [1]) is less than 1 nM; at human CA-XII (setting [2]), 2.5 to 10 nM.

On to `CC(CCC(=O)N[C@@H](CC(=O)N[C@@H](CC(=O)N[C@@H](CCCn1cc(C23CCC(C(=O)Nc4nnc(S(N)(=O)=O)s4)(CC2)C3)nn1)C(=O)NCCOCCOCCNC(=O)CN1CCN(CC(=O)O)CCN(CC(=O)O)CCN(CC(=O)O)CC1)C(=O)O)C(=O)O)(c1ccc(O)cc1)c1ccc(O)cc1.[Lu+3]` [Compound 100.5], for which the Kd on human CA-IX (setting [1]) and on human CA-XII (setting [2]) was less than 1 nM throughout.

Turning to `CC(CCC(=O)N[C@@H](CC(=O)N[C@@H](CC(=O)N[C@@H](CCCCn1cc(C23CCC(C(=O)Nc4nnc(S(N)(=O)=O)s4)(CC2)CC3)nn1)C(=O)NCCOCCOCCNC(=O)CN1CCN(CC(=O)O)CCN(CC(=O)O)CCN(CC(=O)O)CC1)C(=O)O)C(=O)O)(c1ccc(O)cc1)c1ccc(O)cc1.[Lu+3]` [Compound 100.6], the dissociation constant (Kd) was less than 1 nM on human CA-IX (setting [1]) and 1 to 2.5 nM on human CA-XII (setting [2]). Consider `CC(CCC(=O)N[C@@H](CC(=O)N[C@@H](CC(=O)N[C@@H](CCCn1cc(C23CCC(C(=O)Nc4nnc(S(N)(=O)=O)s4)(CC2)CC3)nn1)C(=O)NCCOCCOCCNC(=O)CN1CCN(CC(=O)O)CCN(CC(=O)O)CCN(CC(=O)O)CC1)C(=O)O)C(=O)O)(c1ccc(O)cc1)c1ccc(O)cc1.[Lu+3]` [Compound 100.7], for which the results for the Kd on human CA-IX (setting [1]) and at human CA-XII (setting [2]) were less than 1 nM and 1 to 2.5 nM, respectively. In the case of `CC(CCC(=O)N[C@@H](CC(=O)N[C@@H](CC(=O)N[C@@H](CCCCn1cc(C23CCC(C(=O)Nc4nnc(S(N)(=O)=O)s4)(CC2)C3)nn1)C(=O)N1CC2(CN(C(=O)CN3CCN(CC(=O)O)CCN(CC(=O)O)CCN(CC(=O)O)CC3)C2)C1)C(=O)O)C(=O)O)(c1ccc(O)cc1)c1ccc(O)cc1.[Lu+3]` [Compound 100.10], the Kd on human CA-IX (setting [1]) and at human CA-XII (setting [2]) was less than 1 nM in each case. With `CC(CCC(=O)N[C@@H](CC(=O)N[C@@H](CC(=O)N[C@@H](CCCCn1cc(C23CCC(C(=O)Nc4nnc(S(N)(=O)=O)s4)(CC2)C3)nn1)C(=O)N1CC(NC(=O)CN2CCN(CC(=O)O)CCN(CC(=O)O)CCN(CC(=O)O)CC2)C1)C(=O)O)C(=O)O)(c1ccc(O)cc1)c1ccc(O)cc1.[Lu+3]` [Compound 100.11], the Kd at human CA-IX (setting [1]) and on human CA-XII (setting [2]) was less than 1 nM throughout. As to `CC(CCC(=O)N[C@@H](CC(=O)N[C@@H](CC(=O)N[C@@H](CCCCn1cc(C23CCC(C(=O)Nc4nnc(S(N)(=O)=O)s4)(CC2)C3)nn1)C(=O)N1CCC(NC(=O)CN2CCN(CC(=O)O)CCN(CC(=O)O)CCN(CC(=O)O)CC2)CC1)C(=O)O)C(=O)O)(c1ccc(O)cc1)c1ccc(O)cc1.[Lu+3]` [Compound 100.12], the Kd on human CA-IX (setting [1]) and on human CA-XII (setting [2]) was less than 1 nM in each case. With `CC(CCC(=O)N[C@@H](CC(=O)N[C@@H](CC(=O)N[C@@H](CCCCn1cc(C23CCC(C(=O)Nc4nnc(S(N)(=O)=O)s4)(CC2)C3)nn1)C(=O)N1CCN(C(=O)CN2CCN(CC(=O)O)CCN(CC(=O)O)CCN(CC(=O)O)CC2)CC1)C(=O)O)C(=O)O)(c1ccc(O)cc1)c1ccc(O)cc1.[Lu+3]` [Compound 100.13], the Kd at human CA-IX (setting [1]) and at human CA-XII (setting [2]) was less than 1 nM in each case. Consider `CC(CCC(=O)N[C@@H](CC(=O)N[C@@H](CC(=O)N[C@@H](CCCCn1cc(C23CCC(C(=O)Nc4nnc(S(N)(=O)=O)s4)(CC2)C3)nn1)C(=O)NCCOCCNC(=O)CCC(C(=O)O)N1CCN(CC(=O)O)CCN(CC(=O)O)CCN(CC(=O)O)CC1)C(=O)O)C(=O)O)(c1ccc(O)cc1)c1ccc(O)cc1.[Lu+3]` (some centres unmarked) [Compound 100.15], for which the Kd at human CA-IX (setting [1]) and at human CA-XII (setting [2]) was less than 1 nM each time.

On to `CC(CC(=O)N[C@@H](CC(=O)N[C@@H](CC(=O)N[C@@H](CCCCn1cc(C23CCC(C(=O)Nc4nnc(S(N)(=O)=O)s4)(CC2)C3)nn1)C(=O)NCCOCCOCCNC(=O)CN1CCN(CC(=O)O)CCN(CC(=O)O)CCN(CC(=O)O)CC1)C(=O)O)C(=O)O)(c1ccc(O)cc1)c1ccc(O)cc1.[Lu+3]` [Compound 100.17], for which the Kd on human CA-IX (setting [1]) and at human CA-XII (setting [2]) was less than 1 nM throughout. On to `CC(CCC(=O)N[C@@H](CC(=O)N[C@@H](CC(=O)N[C@@H](CCCCn1cc(C23CCC(C(=O)Nc4nnc(S(N)(=O)=O)s4)(CC2)C3)nn1)C(=O)NCC1(C(=O)O)CCN(C(=O)CN2CCN(CC(=O)O)CCN(CC(=O)O)CCN(CC(=O)O)CC2)CC1)C(=O)O)C(=O)O)(c1ccc(O)cc1)c1ccc(O)cc1.[Lu+3]` [Compound 100.18], for which the equilibrium dissociation constant (Kd) on human CA-IX (setting [1]) and at human CA-XII (setting [2]) was less than 1 nM throughout. For the compound `CC(CCC(=O)N[C@@H](CC(=O)N[C@@H](CC(=O)N[C@@H](CCCCn1cc(C23CCC(C(=O)Nc4nnc(S(N)(=O)=O)s4)(CC2)C3)nn1)C(=O)NCC1(C(=O)O)CN(C(=O)CN2CCN(CC(=O)O)CCN(CC(=O)O)CCN(CC(=O)O)CC2)C1)C(=O)O)C(=O)O)(c1ccc(O)cc1)c1ccc(O)cc1.[Lu+3]` [Compound 100.19], the Kd at human CA-IX (setting [1]) and at human CA-XII (setting [2]) was less than 1 nM throughout. For `Cc1cc(-c2cn(CCNC(=O)[C@@H]3CN(C(=O)CN4CCN(CC(=O)O)CCN(CC(=O)O)CCN(CC(=O)O)CC4)CCN3C(=O)C[C@H](NC(=O)C[C@H](NC(=O)CCC(C)(c3ccc(O)cc3)c3ccc(O)cc3)C(=O)O)C(=O)O)nn2)ccc1C(=O)Nc1nnc(S(N)(=O)=O)s1.[Lu+3]` [Compound 107.40], the dissociation constant (Kd) on human CA-XII (setting [2]) was less than 1 nM.
